The series relates to CCRIS mutagenicity, Ames/micronucleus/aberration tests. The series can be described thus: CCRIS mutagenicity studies.
Where [1] appears, read: Test System: AMES SALMONELLA TYPHIMURIUM, Strain/Indicator: TA100, Metabolic Activation: NONE, Method: PREINCUBATION
Setting [2] is: Test System: AMES SALMONELLA TYPHIMURIUM, Strain/Indicator: TA100, Metabolic Activation: RAT, LIVER, S-9, AROCLOR 1254, Method: PREINCUBATION
Where [3] appears, read: Test System: AMES SALMONELLA TYPHIMURIUM, Strain/Indicator: TA104, Metabolic Activation: NONE, Method: PREINCUBATION
Where [4] appears, read: Test System: AMES SALMONELLA TYPHIMURIUM, Strain/Indicator: TA1535, Metabolic Activation: NONE, Method: PREINCUBATION
Where [5] appears, read: Test System: AMES SALMONELLA TYPHIMURIUM, Strain/Indicator: TA100, Metabolic Activation: NONE, Method: STANDARD PLATE.

Active and inactive are the calls of the source. The rule behind the calls is not given here.

Consider `O=C(O)/C=C/C=C/C(=O)O`, for which the mutagenic call (End Point: IN VITRO CHROMOSOMAL ABERRATIONS, Test System: HUMAN PERIPHERAL LYMPHOCYTES, Metabolic Activation: NONE) is “active; positive (ploidy changes)”; the mutagenic call (End Point: IN VITRO CHROMOSOMAL ABERRATIONS, Test System: HUMAN PERIPHERAL LYMPHOCYTES, Metabolic Activation: NONE, Method: FISH- DUAL COLOR PROBES) was “inactive; negative for translocations”; the mutagenic call (Test System: AMES SALMONELLA TYPHIMURIUM, Strain/Indicator: TA97, Metabolic Activation: NONE, Method: PREINCUBATION) was “inactive; negative”; the mutagenic call (Test System: AMES SALMONELLA TYPHIMURIUM, Strain/Indicator: TA97, Metabolic Activation: RAT, LIVER, S-9, AROCLOR 1254, Method: PREINCUBATION) is “inactive; negative”; the mutagenic call (Test System: AMES SALMONELLA TYPHIMURIUM, Strain/Indicator: TA97, Metabolic Activation: RAT, LIVER, S-9, PHENOBARBITAL AND 5,6-BENZOFLAVONE, Method: PREINCUBATION) is “inactive; negative”; the mutagenic call (Test System: AMES SALMONELLA TYPHIMURIUM, Strain/Indicator: TA98, Metabolic Activation: NONE, Method: PREINCUBATION) was “inactive; negative”. For the same compound, the mutagenic call is “inactive; negative” (Test System: AMES SALMONELLA TYPHIMURIUM, Strain/Indicator: TA98, Metabolic Activation: RAT, LIVER, S-9, AROCLOR 1254, Method: PREINCUBATION); “inactive; negative” (Test System: AMES SALMONELLA TYPHIMURIUM, Strain/Indicator: TA98, Metabolic Activation: RAT, LIVER, S-9, PHENOBARBITAL AND 5,6-BENZOFLAVONE, Method: PREINCUBATION); “inactive; negative” under setting [1]; “inactive; negative” under setting [2]; “inactive; negative” (Test System: AMES SALMONELLA TYPHIMURIUM, Strain/Indicator: TA100, Metabolic Activation: RAT, LIVER, S-9, PHENOBARBITAL AND 5,6-BENZOFLAVONE, Method: PREINCUBATION); “inactive; negative” (Test System: AMES SALMONELLA TYPHIMURIUM, Strain/Indicator: TA102, Metabolic Activation: NONE, Method: PREINCUBATION). Besides, the mutagenic call was “inactive; negative” (Test System: AMES SALMONELLA TYPHIMURIUM, Strain/Indicator: TA102, Metabolic Activation: RAT, LIVER, S-9, AROCLOR 1254, Method: PREINCUBATION); “inactive; negative” (Test System: AMES SALMONELLA TYPHIMURIUM, Strain/Indicator: TA102, Metabolic Activation: RAT, LIVER, S-9, PHENOBARBITAL AND 5,6-BENZOFLAVONE, Method: PREINCUBATION); “inactive; negative” under setting [3]; “inactive; negative” (Test System: AMES SALMONELLA TYPHIMURIUM, Strain/Indicator: TA104, Metabolic Activation: RAT, LIVER, S-9, AROCLOR 1254, Method: PREINCUBATION); “inactive; negative” (Test System: AMES SALMONELLA TYPHIMURIUM, Strain/Indicator: TA104, Metabolic Activation: RAT, LIVER, S-9, PHENOBARBITAL AND 5,6-BENZOFLAVONE, Method: PREINCUBATION); “inactive; negative” under setting [4]. The mutagenic call (Test System: AMES SALMONELLA TYPHIMURIUM, Strain/Indicator: TA1535, Metabolic Activation: RAT, LIVER, S-9, AROCLOR 1254, Method: PREINCUBATION) is “inactive; negative”; the mutagenic call (Test System: CHINESE HAMSTER V-79, Strain/Indicator: V-79 (HGPRT)/8-AZAGUANINE, Metabolic Activation: NONE) was “inactive; negative”; the mutagenic call (Test System: CHINESE HAMSTER V-79, Strain/Indicator: V-79/6-THIOGUANINE, Metabolic Activation: NONE) was “inactive; negative”; the mutagenic call (Test System: E. COLI, Strain/Indicator: WP2 UVRA, Metabolic Activation: NONE, Method: PREINCUBATION) is “inactive; negative”; the mutagenic call (Test System: E. COLI, Strain/Indicator: WP2 UVRA, Metabolic Activation: RAT, LIVER, S-9, AROCLOR 1254, Method: PREINCUBATION) was “inactive; negative”.

As for `CNC[C@H](O)[C@@H](O)[C@H](O)[C@H](O)CO.CNC[C@H](O)[C@@H](O)[C@H](O)[C@H](O)CO.O=C([O-])CN(CCN(CC(=O)[O-])CC(=O)[O-])CCN(CC(=O)[O-])[C@H](COCc1ccccc1)C(=O)[O-].[Gd+3].[H+].[H+]`, the mutagenic call (Test System: AMES SALMONELLA TYPHIMURIUM, Strain/Indicator: TA98, Metabolic Activation: NONE, Method: STANDARD PLATE) is “inactive; negative”; the mutagenic call (Test System: AMES SALMONELLA TYPHIMURIUM, Strain/Indicator: TA98, Metabolic Activation: RAT LIVER S-9, AROCLOR 1254 (10%), Method: STANDARD PLATE) was “inactive; negative”; the mutagenic call under setting [5] was “inactive; negative”; the mutagenic call (Test System: AMES SALMONELLA TYPHIMURIUM, Strain/Indicator: TA100, Metabolic Activation: RAT LIVER S-9, AROCLOR 1254 (10%), Method: STANDARD PLATE) is “inactive; negative”; the mutagenic call (Test System: AMES SALMONELLA TYPHIMURIUM, Strain/Indicator: TA1535, Metabolic Activation: NONE, Method: STANDARD PLATE) was “inactive; negative”; the mutagenic call (Test System: AMES SALMONELLA TYPHIMURIUM, Strain/Indicator: TA1535, Metabolic Activation: RAT LIVER S-9, AROCLOR 1254 (10%), Method: STANDARD PLATE) was “inactive; negative”. Moreover, the mutagenic call runs as follows: (Test System: AMES SALMONELLA TYPHIMURIUM, Strain/Indicator: TA1537, Metabolic Activation: NONE, Method: STANDARD PLATE) “inactive; negative”; (Test System: AMES SALMONELLA TYPHIMURIUM, Strain/Indicator: TA1537, Metabolic Activation: RAT LIVER S-9, AROCLOR 1254 (10%), Method: STANDARD PLATE) “inactive; negative”; (Test System: AMES SALMONELLA TYPHIMURIUM, Strain/Indicator: TA1538, Metabolic Activation: NONE, Method: STANDARD PLATE) “inactive; negative”; (Test System: AMES SALMONELLA TYPHIMURIUM, Strain/Indicator: TA1538, Metabolic Activation: RAT LIVER S-9, AROCLOR 1254 (10%), Method: STANDARD PLATE) “inactive; negative”; (Test System: ESCHERICHIA COLI, Strain/Indicator: WP2 UVR A-, Metabolic Activation: NONE, Method: STANDARD PLATE) “inactive; negative”; (Test System: ESCHERICHIA COLI, Strain/Indicator: WP2 UVR A-, Metabolic Activation: RAT LIVER S-9, AROCLOR 1254 (10%), Method: STANDARD PLATE) “inactive; negative”.

For `Fc1ccc2cccnc2c1`, the mutagenic call (Test System: AMES SALMONELLA TYPHIMURIUM, Strain/Indicator: TA100, Metabolic Activation: RAT LIVER S-9, PHENOBARBITAL AND 5,6-BENZOFLAVONE, Method: PREINCUBATION) was “active; positive”; the mutagenic call under setting [2] was “active; positive”; the mutagenic call (Test System: UDS RODENT HEPATOCYTES, Strain/Indicator: THY INCORP (NON-S-PHASE), Metabolic Activation: NONE, Method: AUTORADIOGRAPHY) was “active; positive”.

Consider `c1ccc2c(c1)Cc1ccc3ccc4ccccc4c3c1-2`, for which the mutagenic call (Test System: AMES SALMONELLA TYPHIMURIUM, Strain/Indicator: TA100, Metabolic Activation: RAT, LIVER, S-9, AROCLOR 1254, Method: STANDARD PLATE) is “inactive; negative”.

On to `C[C@@](Cc1ccc(O)c(O)c1)(NN)C(=O)O`, for which the mutagenic call runs as follows: under setting [5], “active; positive”; (Test System: AMES SALMONELLA TYPHIMURIUM, Strain/Indicator: TA100, Metabolic Activation: RAT, LIVER, S-9, PHENOBARBITAL, Method: STANDARD PLATE) “active; positive”; (Test System: UDS RAT HEPATOCYTES, Strain/Indicator: THY INCORP, Metabolic Activation: NONE, Method: AUTORADIOGRAPHY) “inactive; negative”.

On to `CCOC(=O)N(CCC=O)N=O`, for which the mutagenic call is “active; positive” under setting [1], “active; positive” under setting [3] and “active; positive” under setting [4].

Take `NCCc1cc(O)c(O)cc1O`: the mutagenic call reads like this: (Test System: AMES SALMONELLA TYPHIMURIUM, Strain/Indicator: TA102, Metabolic Activation: NONE, Method: STANDARD PLATE) “active; positive”; (Test System: AMES SALMONELLA TYPHIMURIUM, Strain/Indicator: TA104, Metabolic Activation: NONE, Method: STANDARD PLATE) “active; positive”.

For the origin of these results see PubChem BioAssay AID1259407 (Chemical Carcinogenesis Research Information System (CCRIS), 2018).
